Source: patent US8076457B2, “Crystal of a cytochrome-ligand complex and methods of use” (The Scripps Research Institute, priority 2005, dated 2011)

Experiments:
[1] = target: T1, CYP2A6dH (Homo sapiens, UniProt P11509, Q458E); experiment: binding constants by visible difference spectroscopy (low spin to high spin conversion); conditions: for spectral change on binding to the purified enzyme: spectral titration, UV-visible
T1 construct: expressing residues 29-494 of the catalytic domain without internal modifications; 4xHis (C); made in house; host or cells: Escherichia coli
T1 sequence (P11509 with tags, fused parts or gaps Q458E): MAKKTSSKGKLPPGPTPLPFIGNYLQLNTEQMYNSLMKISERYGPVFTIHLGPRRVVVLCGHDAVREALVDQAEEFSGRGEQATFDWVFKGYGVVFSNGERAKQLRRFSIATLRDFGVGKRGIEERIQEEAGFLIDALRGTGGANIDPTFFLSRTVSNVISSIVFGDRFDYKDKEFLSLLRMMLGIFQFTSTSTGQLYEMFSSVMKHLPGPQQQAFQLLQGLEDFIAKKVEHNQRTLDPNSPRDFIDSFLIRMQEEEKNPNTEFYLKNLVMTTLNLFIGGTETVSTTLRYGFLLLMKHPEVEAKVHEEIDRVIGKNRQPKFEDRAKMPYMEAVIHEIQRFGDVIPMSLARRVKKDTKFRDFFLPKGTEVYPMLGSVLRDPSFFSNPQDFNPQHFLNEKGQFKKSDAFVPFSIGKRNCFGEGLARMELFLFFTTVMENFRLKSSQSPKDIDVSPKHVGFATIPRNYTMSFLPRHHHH
Experimental: Purified CYP2A6dH was diluted to ˜3 μM in 50 mM KPi pH 7.4, 500 mM NaCl, 20% glycerol, 1 mM EDTA (referred to as XB) in a 1-cm path length microcuvette. […] The total concentration of methanol remained under 1%. Binding was monitored as the absorbance difference, ΔA, between the peak (˜385 nm) and trough (˜417 nm) of the difference spectrum. The apparent binding constant, Ks, and the extrapolated maximum spectral change, ΔAmax, were estimated from nonlinear least-squares regression fitting using the following equation:
[formula] where S is the total concentration of ligand and P is the total concentration of P450.

[2] = target: T2, full length wild-type CYP2A6 (Homo sapiens, UniProt P11509); conditions: microsomal preparations from a panel of 12 human liver microsomes, cited from earlier work
T2 construct: for full length wild-type CYP2A6 in microsomal preparations; host or cells: human liver microsomes (panel of 12)
T2 sequence (P11509 1-494): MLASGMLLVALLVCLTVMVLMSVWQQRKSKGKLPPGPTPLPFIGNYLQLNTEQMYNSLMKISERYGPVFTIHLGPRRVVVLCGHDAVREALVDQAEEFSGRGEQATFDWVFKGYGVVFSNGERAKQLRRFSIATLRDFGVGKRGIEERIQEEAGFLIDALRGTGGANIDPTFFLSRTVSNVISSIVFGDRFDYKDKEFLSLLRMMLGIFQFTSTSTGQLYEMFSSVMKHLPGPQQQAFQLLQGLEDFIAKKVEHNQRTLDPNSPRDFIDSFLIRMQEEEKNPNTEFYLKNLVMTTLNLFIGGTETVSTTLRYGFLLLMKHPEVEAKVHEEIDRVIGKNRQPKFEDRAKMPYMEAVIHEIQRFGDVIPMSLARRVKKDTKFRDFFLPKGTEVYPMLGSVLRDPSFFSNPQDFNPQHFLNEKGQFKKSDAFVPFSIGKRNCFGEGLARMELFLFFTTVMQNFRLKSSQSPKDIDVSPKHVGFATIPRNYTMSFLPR

[3] = target: T1, CYP2A6dH; experiment: coumarin 7-hydroxylation by purified CYP2A6dH reconstituted with P450 reductase; type: biochemical
Description: In this example, to determine catalytic properties for the purified protein, CYP2A6dH was reconstituted with E. coli-expressed purified human reductase in the absence of L-α-dilauroyl-L-α-lecithin with slight modifications to the protocol described by Tan et al. (Competitive interactions between CYP2A6 and cytochrome P450 2E1 for NADPH-cytochrome P450 oxidoreductase in the microsomal membranes produced by a baculovirus expression system. Arch. Biochem. Biophys. 342, 82-91 (1997)). 10 pmol CYP2A6dH was incubated on ice for 10 min. with 0.06 U human reductase at a ratio of 1:6, CYP2A6dH to reductase in a final volume of 10 μl. 1.2 benzopyrone at concentrations ranging from 25 μM to 2.5 mM were then added in […] aliquots, along with 430 μL of 50 mM Tris pH 7.4. The reaction mixture was allowed to equilibrate at 37° C. for 3 min. To start the reaction, 50 μl of an NADPH regeneration system (50 mM isocitrate, 50 mM MgCl2, 5 U/ml isocitrate dehydrogenase and 10 mM NADPH) was added. The reaction was allowed to proceed for 5 min., and stopped by addition of 100 μl of cold 20% trichloroacetic acid. The components were centrifuged at 13,000 rpm. 10 μl of the supernatant was removed and added to 190 μl 100 mM Tris buffer, pH 9.0. the coumarin content was quantified fluorometrically (excitation at 368 nm and emission at 453 nm).

spectral change on binding to the purified enzyme [1] | Kd ([1]; substrate dependent conversion to high spin ferric heme protein, read-out: Dissociation constant for binding to purified CYP2A6dH) [nM] | Km [3] [nM] | Vmax for coumarin 7-hydroxylation [3] [nmols/min/nmol P450] | SMILES | Vmax of coumarin hydroxylation (mean value) [2] [nmols/min/nmol P450] | Km ([2]; read-out: Km of coumarin hydroxylation (mean value)) [nM]
type I spectral change | 270 | 230 ± 30 | 10.83±1.38 | O=c1ccc2ccccc2o1 [coumarin, 1,2-benzopyrone] | 6.34 | 400
type I spectral change | – | – | – | COc1c2occc2cc2ccc(=O)oc12 [methoxsalen, 8-methoxypsoralen] | – | –
